Results as given in ChEMBL document CHEMBL1955797, “Discovery of vinylcycloalkyl-substituted benzimidazole TRPM8 antagonists effective in the treatment of cold allodynia” (Bioorg Med Chem Lett, 2012).
Each block holds one molecule with its values, some of them ahead of it. The source made the active and inactive calls. The rule behind the calls is not given here.

Experiments:
[1] = target: Transient receptor potential M8 protein (Canis lupus familiaris) (UniProt Q1A7N1); assay: Antagonist activity at dog TRPM8 expressed in human HEK293 cells assessed as inhibition of icilin-induced calcium flux at 0.2 uM by FLIPR assay; format: functional, cell-based
[2] = Metabolic stability in dog liver microsomes assessed as compound remaining after 10 mins; format: ADME, Canis lupus familiaris, Microsome; conditions: read-out: Stability
[3] = Metabolic stability in human liver microsomes assessed as compound remaining after 10 mins; format: ADME, Microsome; conditions: read-out: Stability
[4] = Metabolic stability in rat liver microsomes assessed as compound remaining after 10 mins; format: ADME, Microsome; conditions: read-out: Stability
[5] = target: Transient receptor potential M8 protein (Canis lupus familiaris, UniProt Q1A7N1); assay: Antagonist activity at dog TRPM8 expressed in HEK293 cells assessed as inhibition of icilin-induced calcium flux by FLIPR assay; format: functional, cell-based
Rattus norvegicus [6] = assay: Antiallodynic activity against chronic constriction injury cold allodynia in rat assessed as inhibition of cold hypersensitivity at 10 mg/kg, po measured after 4 hrs post dosing; format: functional, organism-based; set-up: dose 10 mg/kg
CYP2C9 = CYP2C9 (Homo sapiens, UniProt P11712); assay: Inhibition of CYP2C9 in human liver microsomes at 3.3 uM; format: ADME, Microsome
[7] = target: Transient receptor potential cation channel subfamily M member 8 (Homo sapiens, UniProt Q7Z2W7); assay: Antagonist activity at human TRPM8 by calcium flux assay; format: functional
[8] = Volume of distribution at steady state in rat at 10 mg/kg; format: ADME, organism-based; set-up: dose 10 mg/kg; conditions: in vivo, read-out: Vdss
[9] = target: Transient receptor potential cation channel subfamily M member 8 (Rattus norvegicus, UniProt Q8R455); assay: Antagonist activity at rat TRPM8 by calcium flux assay; format: functional
Cytochrome P450 2D6 = Cytochrome P450 2D6 (Homo sapiens, UniProt P10635); assay: Inhibition of recombinant CYP2D6; format: ADME
Cytochrome P450 2C19 [10] = target: T1, Cytochrome P450 2C19 (Homo sapiens, UniProt P33261); assay: Inhibition of CYP2C19 in human liver microsomes; format: ADME, Microsome
[11] = Tmax in rat at 10 mg/kg; format: ADME, organism-based; set-up: dose 10 mg/kg; conditions: in vivo
[12] = Clearance in rat at 10 mg/kg; format: ADME, organism-based; set-up: dose 10 mg/kg; conditions: in vivo
[13] = Oral bioavailability in rat at 10 mg/kg; format: ADME, organism-based; conditions: in vivo
Rattus norvegicus [14] = assay: Antiallodynic activity against chronic constriction injury cold allodynia in rat assessed as inhibition of cold hypersensitivity at 10 mg/kg, po measured after 2 hrs post dosing; format: functional, organism-based; set-up: dose 10 mg/kg
[15] = Cmax in rat at 10 mg/kg; format: ADME, organism-based; set-up: dose 10 mg/kg; conditions: in vivo
Cytochrome P450 2C9 = Cytochrome P450 2C9 (Homo sapiens, UniProt P11712); assay: Inhibition of recombinant CYP2C9; format: ADME
[16] = Half life in rat at 10 mg/kg; format: ADME, organism-based; set-up: dose 10 mg/kg; conditions: in vivo
Cytochrome P450 3A4 [17] = target: T2, Cytochrome P450 3A4 (Homo sapiens, UniProt P08684); assay: Inhibition of CYP3A4 in human liver microsomes; format: ADME, Microsome
Rattus norvegicus [18] = assay: Antiallodynic activity against chronic constriction injury cold allodynia in rat assessed as inhibition of cold hypersensitivity at 10 mg/kg, po measured after 2 to 3 hrs post dosing; format: functional
Cytochrome P450 3A4 [19] = target: T2, Cytochrome P450 3A4; assay: Inhibition of recombinant CYP3A4; format: ADME
Cytochrome P450 1A2 = target: T3, Cytochrome P450 1A2 (Homo sapiens, UniProt P05177); assay: Inhibition of recombinant CYP1A2; format: ADME
T3 sequence (P05177 whole entry): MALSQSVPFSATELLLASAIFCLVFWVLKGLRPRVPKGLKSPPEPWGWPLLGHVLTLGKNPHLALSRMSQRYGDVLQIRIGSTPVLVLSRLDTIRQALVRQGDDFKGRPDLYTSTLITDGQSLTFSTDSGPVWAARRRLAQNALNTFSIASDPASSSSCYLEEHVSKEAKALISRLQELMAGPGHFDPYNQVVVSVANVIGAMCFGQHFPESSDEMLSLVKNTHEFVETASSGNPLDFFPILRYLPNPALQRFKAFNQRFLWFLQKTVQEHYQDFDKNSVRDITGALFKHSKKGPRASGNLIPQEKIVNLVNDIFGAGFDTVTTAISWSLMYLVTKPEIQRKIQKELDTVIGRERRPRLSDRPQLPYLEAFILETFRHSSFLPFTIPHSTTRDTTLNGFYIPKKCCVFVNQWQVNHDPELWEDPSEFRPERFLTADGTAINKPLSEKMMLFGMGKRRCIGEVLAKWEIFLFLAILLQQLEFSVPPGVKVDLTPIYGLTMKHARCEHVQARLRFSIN

Rattus norvegicus [20] = assay: Antiallodynic activity against chronic constriction injury cold allodynia in rat assessed as inhibition of cold hypersensitivity at 30 mg/kg, po measured after 2 to 3 hrs post dosing; format: functional
Cytochrome P450 2C19 [21] = target: T1, Cytochrome P450 2C19; assay: Inhibition of recombinant CYP2C19; format: ADME
Liver microsomes = assay: Metabolic stability in human liver microsomes assessed as CYP3A4-mediated glutathione adduct formation by glutathione conjugation assay; format: ADME, Microsome
Rattus norvegicus [22] = assay: Inhibition of icilin-induced wet dog shakes behavior in po dosed rat administered 60 mins prior to icilin challenge; format: functional

Sequence of Transient receptor potential M8 protein (Q1A7N1 whole entry): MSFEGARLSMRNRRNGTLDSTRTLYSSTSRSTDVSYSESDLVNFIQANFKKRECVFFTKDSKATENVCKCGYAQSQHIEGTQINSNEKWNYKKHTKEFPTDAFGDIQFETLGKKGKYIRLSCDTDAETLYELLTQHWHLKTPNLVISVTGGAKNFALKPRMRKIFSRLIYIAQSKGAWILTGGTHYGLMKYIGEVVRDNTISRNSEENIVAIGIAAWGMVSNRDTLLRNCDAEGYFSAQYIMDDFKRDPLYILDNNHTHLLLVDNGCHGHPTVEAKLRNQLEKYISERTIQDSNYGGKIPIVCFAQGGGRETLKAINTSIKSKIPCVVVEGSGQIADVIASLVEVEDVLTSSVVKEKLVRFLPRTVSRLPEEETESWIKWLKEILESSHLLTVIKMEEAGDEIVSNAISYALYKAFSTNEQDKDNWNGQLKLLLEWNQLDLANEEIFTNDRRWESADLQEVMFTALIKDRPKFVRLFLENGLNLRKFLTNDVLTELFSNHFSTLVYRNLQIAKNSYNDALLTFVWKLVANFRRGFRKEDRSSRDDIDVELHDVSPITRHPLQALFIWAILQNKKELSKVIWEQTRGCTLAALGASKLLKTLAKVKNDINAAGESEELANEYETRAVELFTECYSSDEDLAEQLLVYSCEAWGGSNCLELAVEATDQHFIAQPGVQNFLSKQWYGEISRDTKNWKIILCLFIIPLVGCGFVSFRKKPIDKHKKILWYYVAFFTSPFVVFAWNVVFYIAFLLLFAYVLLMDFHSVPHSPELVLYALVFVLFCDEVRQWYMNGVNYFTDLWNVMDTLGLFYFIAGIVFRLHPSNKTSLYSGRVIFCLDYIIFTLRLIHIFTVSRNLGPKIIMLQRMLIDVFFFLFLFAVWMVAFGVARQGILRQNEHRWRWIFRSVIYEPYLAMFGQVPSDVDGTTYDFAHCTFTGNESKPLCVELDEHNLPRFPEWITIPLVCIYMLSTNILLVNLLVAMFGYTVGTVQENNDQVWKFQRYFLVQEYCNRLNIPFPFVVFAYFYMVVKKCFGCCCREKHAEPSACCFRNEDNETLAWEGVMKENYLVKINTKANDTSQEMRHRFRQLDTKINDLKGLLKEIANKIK
Sequence of Transient receptor potential M8 protein (Canis lupus familiaris) (Q1A7N1 1-1104): as the sequence (Q1A7N1 whole entry) above
T2 sequence (P08684 whole entry): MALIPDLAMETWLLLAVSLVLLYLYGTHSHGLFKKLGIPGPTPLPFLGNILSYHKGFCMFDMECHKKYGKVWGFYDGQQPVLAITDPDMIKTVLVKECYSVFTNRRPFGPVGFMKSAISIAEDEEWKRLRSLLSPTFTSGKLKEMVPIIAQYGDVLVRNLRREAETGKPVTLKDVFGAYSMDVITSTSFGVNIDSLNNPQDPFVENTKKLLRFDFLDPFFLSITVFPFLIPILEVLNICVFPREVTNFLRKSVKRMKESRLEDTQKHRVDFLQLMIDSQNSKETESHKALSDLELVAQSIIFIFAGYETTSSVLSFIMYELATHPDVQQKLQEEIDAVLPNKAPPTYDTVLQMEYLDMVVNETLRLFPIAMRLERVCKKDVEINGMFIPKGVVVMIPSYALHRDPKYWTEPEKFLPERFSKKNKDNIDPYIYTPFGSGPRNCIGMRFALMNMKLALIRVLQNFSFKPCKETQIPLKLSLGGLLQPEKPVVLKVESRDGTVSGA
T1 sequence (P33261 whole entry): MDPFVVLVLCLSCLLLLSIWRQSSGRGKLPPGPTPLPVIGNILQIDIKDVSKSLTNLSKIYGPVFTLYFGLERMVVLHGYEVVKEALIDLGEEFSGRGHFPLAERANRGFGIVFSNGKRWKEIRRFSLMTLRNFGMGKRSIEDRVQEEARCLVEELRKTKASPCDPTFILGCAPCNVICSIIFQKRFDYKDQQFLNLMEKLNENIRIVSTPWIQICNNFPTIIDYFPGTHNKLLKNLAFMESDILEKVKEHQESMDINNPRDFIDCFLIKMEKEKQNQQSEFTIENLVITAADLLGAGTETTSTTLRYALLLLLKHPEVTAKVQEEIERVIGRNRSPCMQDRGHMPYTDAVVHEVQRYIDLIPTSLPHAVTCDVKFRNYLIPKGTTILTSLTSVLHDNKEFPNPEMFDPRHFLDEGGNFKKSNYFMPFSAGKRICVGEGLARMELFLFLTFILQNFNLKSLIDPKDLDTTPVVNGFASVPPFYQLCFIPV
Sequence of Transient receptor potential cation channel subfamily M member 8 (Rattus norvegicus, UniProt Q8R455) (Q8R455 whole entry): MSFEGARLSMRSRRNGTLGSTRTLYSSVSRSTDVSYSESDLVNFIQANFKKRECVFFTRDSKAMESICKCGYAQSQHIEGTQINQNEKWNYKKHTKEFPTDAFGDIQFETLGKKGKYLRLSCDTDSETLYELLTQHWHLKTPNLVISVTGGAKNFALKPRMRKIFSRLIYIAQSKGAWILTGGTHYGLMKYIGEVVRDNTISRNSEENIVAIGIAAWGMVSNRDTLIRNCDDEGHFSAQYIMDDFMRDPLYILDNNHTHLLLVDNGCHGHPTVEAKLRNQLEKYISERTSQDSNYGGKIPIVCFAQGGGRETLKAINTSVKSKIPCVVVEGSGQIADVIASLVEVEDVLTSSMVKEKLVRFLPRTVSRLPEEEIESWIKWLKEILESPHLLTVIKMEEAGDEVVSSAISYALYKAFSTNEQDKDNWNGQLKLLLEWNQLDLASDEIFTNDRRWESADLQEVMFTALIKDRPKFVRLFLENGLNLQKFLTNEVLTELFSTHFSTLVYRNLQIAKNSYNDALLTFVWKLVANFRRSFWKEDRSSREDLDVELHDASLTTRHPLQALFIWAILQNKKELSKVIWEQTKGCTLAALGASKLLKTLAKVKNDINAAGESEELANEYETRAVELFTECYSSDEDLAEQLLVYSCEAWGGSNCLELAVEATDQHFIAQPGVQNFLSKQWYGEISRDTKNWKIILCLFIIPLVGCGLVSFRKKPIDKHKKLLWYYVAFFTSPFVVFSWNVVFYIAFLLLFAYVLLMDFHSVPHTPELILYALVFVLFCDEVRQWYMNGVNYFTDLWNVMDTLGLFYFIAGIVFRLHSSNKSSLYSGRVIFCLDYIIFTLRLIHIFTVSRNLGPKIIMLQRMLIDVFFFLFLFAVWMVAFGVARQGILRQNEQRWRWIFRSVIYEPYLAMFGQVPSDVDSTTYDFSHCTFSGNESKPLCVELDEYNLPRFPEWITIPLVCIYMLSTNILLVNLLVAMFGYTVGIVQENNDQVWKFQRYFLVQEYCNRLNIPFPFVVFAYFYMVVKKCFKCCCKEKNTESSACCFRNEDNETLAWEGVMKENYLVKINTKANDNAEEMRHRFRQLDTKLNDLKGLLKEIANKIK
Sequence of Transient receptor potential cation channel subfamily M member 8 (Homo sapiens, UniProt Q7Z2W7) (Q7Z2W7 whole entry): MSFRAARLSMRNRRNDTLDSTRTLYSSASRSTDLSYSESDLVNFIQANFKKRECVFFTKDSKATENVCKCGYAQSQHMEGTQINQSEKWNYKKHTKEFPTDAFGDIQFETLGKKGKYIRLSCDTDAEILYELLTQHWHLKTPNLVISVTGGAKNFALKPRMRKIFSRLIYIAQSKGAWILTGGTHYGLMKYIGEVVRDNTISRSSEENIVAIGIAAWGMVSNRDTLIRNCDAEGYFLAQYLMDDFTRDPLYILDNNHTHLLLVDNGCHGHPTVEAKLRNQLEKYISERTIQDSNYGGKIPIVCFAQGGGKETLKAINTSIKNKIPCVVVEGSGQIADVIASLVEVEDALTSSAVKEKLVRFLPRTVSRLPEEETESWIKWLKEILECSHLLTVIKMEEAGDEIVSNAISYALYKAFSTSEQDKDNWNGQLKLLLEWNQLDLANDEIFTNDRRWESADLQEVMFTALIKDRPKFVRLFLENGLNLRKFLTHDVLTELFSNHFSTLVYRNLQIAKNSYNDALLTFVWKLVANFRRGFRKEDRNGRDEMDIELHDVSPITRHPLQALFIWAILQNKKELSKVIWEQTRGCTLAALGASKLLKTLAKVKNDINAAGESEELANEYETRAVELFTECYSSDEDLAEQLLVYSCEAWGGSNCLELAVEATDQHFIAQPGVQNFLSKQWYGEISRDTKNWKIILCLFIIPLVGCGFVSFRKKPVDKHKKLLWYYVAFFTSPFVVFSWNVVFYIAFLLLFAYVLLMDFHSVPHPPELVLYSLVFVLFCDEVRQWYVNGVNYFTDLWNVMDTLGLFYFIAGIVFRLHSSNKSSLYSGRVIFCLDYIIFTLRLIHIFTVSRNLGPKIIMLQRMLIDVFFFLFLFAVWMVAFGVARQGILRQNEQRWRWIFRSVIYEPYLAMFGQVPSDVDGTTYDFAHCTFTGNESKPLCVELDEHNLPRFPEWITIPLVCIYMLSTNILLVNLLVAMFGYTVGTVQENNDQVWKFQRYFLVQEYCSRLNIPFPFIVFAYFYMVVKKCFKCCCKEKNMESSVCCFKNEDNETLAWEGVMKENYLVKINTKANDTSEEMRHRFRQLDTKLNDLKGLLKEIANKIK
Sequence of Cytochrome P450 2D6 (P10635 whole entry): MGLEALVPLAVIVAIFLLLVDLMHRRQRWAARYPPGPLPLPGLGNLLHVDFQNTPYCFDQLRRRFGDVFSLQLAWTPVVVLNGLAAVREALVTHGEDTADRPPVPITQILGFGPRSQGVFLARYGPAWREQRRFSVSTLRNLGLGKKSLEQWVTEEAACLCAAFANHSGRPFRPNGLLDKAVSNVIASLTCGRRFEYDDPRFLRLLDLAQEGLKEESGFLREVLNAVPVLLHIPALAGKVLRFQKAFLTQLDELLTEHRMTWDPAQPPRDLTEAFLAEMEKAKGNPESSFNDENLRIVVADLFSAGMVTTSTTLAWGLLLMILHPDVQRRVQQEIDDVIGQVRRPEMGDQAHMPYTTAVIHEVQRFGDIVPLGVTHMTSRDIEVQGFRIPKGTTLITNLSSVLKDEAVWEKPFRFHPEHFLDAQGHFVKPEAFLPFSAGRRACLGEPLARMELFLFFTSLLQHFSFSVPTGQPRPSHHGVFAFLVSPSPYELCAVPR

inhibition [1]: 16% | remaining at 10 min [2]: 98% | remaining at 10 min [3]: 99% | remaining at 10 min [4]: 86%
SMILES: FC(F)(F)c1ccccc1-c1ccc2[nH]c(/C=C/C3CCNCC3)nc2c1

remaining at 10 min [2]: 8% | remaining at 10 min [3]: 67% | remaining at 10 min [4]: 6%
SMILES: FC(F)(F)c1ccccc1-c1ccc2[nH]c(/C=C/C3CCSCC3)nc2c1

IC50 [5]: 7.1 nM | remaining at 10 min [2]: 51% | remaining at 10 min [3]: 93% | remaining at 10 min [4]: 79%
SMILES: FC(F)(F)c1ccccc1-c1ccc2[nH]c(/C=C/C3CCOCC3)nc2c1

inhibition [1]: 63% | remaining at 10 min [2]: 60% | remaining at 10 min [3]: 91% | remaining at 10 min [4]: 74%
SMILES: O=S1(=O)CCC(/C=C/c2nc3cc(-c4ccccc4C(F)(F)F)ccc3[nH]2)CC1

IC50 [5]: 110 nM | remaining at 10 min [3]: 84% | remaining at 10 min [4]: 71%
SMILES: FC(F)(F)Oc1ccccc1-c1ccc2[nH]c(/C=C/C3CCCC3)nc2c1

inhibition [1]: 1%
SMILES: CN1CCC(/C=C/c2nc3cc(-c4ccccc4C(F)(F)F)ccc3[nH]2)CC1

IC50 [5]: 7.1 nM | remaining at 10 min [2]: 13% | remaining at 10 min [3]: 77% | remaining at 10 min [4]: 15%
SMILES: Cc1ccccc1-c1ccc2[nH]c(/C=C/C3CCCCC3)nc2c1

inhibition at 3.3 µM (CYP2C9): 62% | IC50 [7]: 15 nM | Vd [8]: 9.5 L/kg | IC50 [9]: 20 nM | IC50 (Cytochrome P450 2D6): > 10000 nM | IC50 (Cytochrome P450 2C19 [10]): > 30000 nM | Tmax [11]: 1.6 h | clearance [12]: 22 mL/min/kg | IC50 [5]: 11 nM | bioavailability [13]: 14% | Cmax [15]: 225 ng/mL | IC50 (Cytochrome P450 2C9): 3500 nM | half-life [16]: 2.9 h | IC50 (Cytochrome P450 3A4 [17]): > 30000 nM | remaining at 10 min [2]: 20% | IC50 (Cytochrome P450 3A4 [19]): 3500 nM | IC50 (Cytochrome P450 1A2): > 10000 nM | remaining at 10 min [3]: 85% | remaining at 10 min [4]: 58% | IC50 (Cytochrome P450 2C19 [21]): > 10000 nM | Stability (Liver microsomes): Stable
SMILES: FC(F)(F)c1ccccc1-c1ccc2[nH]c(/C=C/C3CCCCC3)nc2c1
Activity (Rattus norvegicus [6]): Active | Activity (Rattus norvegicus [14]): Active | inhibition in vivo at 10 mg/kg (Rattus norvegicus [18]): 90% | inhibition in vivo at 30 mg/kg (Rattus norvegicus [20]): 90% | ED50 (Rattus norvegicus [22]): 6.4 mg/kg | inhibition (Rattus norvegicus [22]): Dose-dependent effect

IC50 [5]: 8.9 nM | remaining at 10 min [3]: 71% | remaining at 10 min [4]: 39%
SMILES: Clc1ccccc1-c1ccc2[nH]c(/C=C/C3CCCCC3)nc2c1

remaining at 10 min [3]: 71% | remaining at 10 min [4]: 91%
SMILES: FC(F)(F)Oc1ccccc1-c1ccc2[nH]c(/C=C/C3CCCCC3)nc2c1

IC50 [5]: 12.3 nM | remaining at 10 min [2]: 61% | remaining at 10 min [3]: 56% | remaining at 10 min [4]: 44%
SMILES: FC(F)(F)c1cccc(C(F)(F)F)c1-c1ccc2[nH]c(/C=C/C3CCCCC3)nc2c1

inhibition [1]: 14% | remaining at 10 min [2]: 75%
SMILES: CS(=O)(=O)N1CCC(/C=C/c2nc3cc(-c4ccccc4C(F)(F)F)ccc3[nH]2)CC1

IC50 [5]: 38 nM | remaining at 10 min [2]: 42% | remaining at 10 min [3]: 90% | remaining at 10 min [4]: 72%
SMILES: FC(F)(F)c1cccnc1-c1ccc2[nH]c(/C=C/C3CCCCC3)nc2c1

IC50 [5]: 21 nM | remaining at 10 min [2]: 75% | remaining at 10 min [3]: 98% | remaining at 10 min [4]: 34%
SMILES: Fc1ccccc1-c1ccc2[nH]c(/C=C/C3CCCCC3)nc2c1

IC50 [5]: 8.9 nM | remaining at 10 min [2]: 35% | remaining at 10 min [3]: 62% | remaining at 10 min [4]: 20%
SMILES: CC1(/C=C/c2nc3cc(-c4ccccc4C(F)(F)F)ccc3[nH]2)CCOCC1

inhibition [1]: 1% | remaining at 10 min [2]: 100% | remaining at 10 min [3]: 100% | remaining at 10 min [4]: 85%
SMILES: CC(=O)N1CCC(/C=C/c2nc3cc(-c4ccccc4C(F)(F)F)ccc3[nH]2)CC1

IC50 [5]: 110 nM
SMILES: C(=C\C1CCCCC1)/c1nc2cc(-c3ccccc3)ccc2[nH]1

IC50 [5]: 8.9 nM | remaining at 10 min [3]: 62% | remaining at 10 min [4]: 10%
SMILES: COc1ccccc1-c1ccc2[nH]c(/C=C/C3CCCCC3)nc2c1

IC50 [5]: 21 nM | remaining at 10 min [2]: 39% | remaining at 10 min [3]: 47% | remaining at 10 min [4]: 100%
SMILES: FC1(F)CCC(/C=C/c2nc3cc(-c4ccccc4C(F)(F)F)ccc3[nH]2)CC1

IC50 [5]: 8.6 nM | remaining at 10 min [2]: 42% | remaining at 10 min [3]: 67% | remaining at 10 min [4]: 66%
SMILES: Fc1cccc(C(F)(F)F)c1-c1ccc2[nH]c(/C=C/C3CCCCC3)nc2c1

IC50 [5]: 8.9 nM | remaining at 10 min [2]: 28% | remaining at 10 min [3]: 97% | remaining at 10 min [4]: 84%
SMILES: CC1(/C=C/c2nc3cc(-c4ccccc4C(F)(F)F)ccc3[nH]2)CCC(F)(F)CC1
